Values belong to the compound of their own block, whether it stands above or below them.
Tested on: 313798-341-R-J2-PDC spheroids, viability
Assay: Anticancer human tumor 313798-341-R-J2-PDC patient-derived cervical squamous cell carcinoma cell line growth inhibition [PI3K]
Details: spheroids with HUVEC and MSC; for IC50: curve of first compound; for viability, T/C: stronger effect = lower value
Summary of the method: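 Targeted small molecules plus PI3K inhibitors, half-log dose series from Cmax (default top 10 microM), were applied to heterotypic spheroids of cancer cells with HUVEC and MSCs. Viability indicated growth inhibition.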

[1] = second compound 0.0316 µM, first compound 0.0316 µM
[2] = second compound 0.0316 µM, first compound 0.1 µM
[3] = second compound 0.0316 µM, first compound 0.316 µM
[4] = second compound 0.0316 µM, first compound 1 µM
[5] = second compound 0.0316 µM, first compound 3.16 µM
[6] = second compound 0.0316 µM, first compound 10 µM
[7] = second compound 0.1 µM, first compound 0.0316 µM
[8] = second compound 0.1 µM, first compound 0.1 µM
[9] = second compound 0.1 µM, first compound 0.316 µM
[10] = second compound 0.1 µM, first compound 1 µM
[11] = second compound 0.1 µM, first compound 3.16 µM
[12] = second compound 0.1 µM, first compound 10 µM
[13] = second compound 0.316 µM, first compound 0.0316 µM
[14] = second compound 0.316 µM, first compound 0.1 µM
[15] = second compound 0.316 µM, first compound 0.316 µM
[16] = second compound 0.316 µM, first compound 1 µM
[17] = second compound 0.316 µM, first compound 3.16 µM
[18] = second compound 0.316 µM, first compound 10 µM
[19] = second compound 1 µM, first compound 0.0316 µM
[20] = second compound 1 µM, first compound 0.1 µM
[21] = second compound 1 µM, first compound 0.316 µM
[22] = second compound 1 µM, first compound 1 µM
[23] = second compound 1 µM, first compound 3.16 µM
[24] = second compound 1 µM, first compound 10 µM
[25] = second compound 3.16 µM, first compound 0.0316 µM
[26] = second compound 3.16 µM, first compound 0.1 µM
[27] = second compound 3.16 µM, first compound 0.316 µM
[28] = second compound 3.16 µM, first compound 1 µM
[29] = second compound 3.16 µM, first compound 3.16 µM
[30] = second compound 3.16 µM, first compound 10 µM
[31] = second compound 10 µM, first compound 0.0316 µM
[32] = second compound 10 µM, first compound 0.1 µM
[33] = second compound 10 µM, first compound 0.316 µM
[34] = second compound 10 µM, first compound 1 µM
[35] = second compound 10 µM, first compound 3.16 µM
[36] = second compound 10 µM, first compound 10 µM
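Further: spheroids exposed to compounds for seven days.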
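Wherever viability, T/C is given: 100% = DMSO vehicle control viability.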

IC50 (second compound 0.0316 µM): > 10000 nM
IC50 (second compound 0.1 µM): > 10000 nM
IC50 (second compound 0.316 µM): > 10000 nM
IC50 (second compound 1 µM): > 10000 nM
IC50 (second compound 3.16 µM): > 10000 nM
IC50 (second compound 10 µM): < 31.6 nM
SMILES: CC(Cn1ccc(-c2ccc(C#N)c(Cl)c2)n1)NC(=O)c1cc(C(C)O)[nH]n1 (stereo unspecified) + Cc1nc(NC(=O)N2CCCC2C(N)=O)sc1-c1ccnc(C(C)(C)C(F)(F)F)c1
viability, T/C [1]: 103%
viability, T/C [2]: 93.9%
viability, T/C [3]: 97.6%
viability, T/C [4]: 99.9%
viability, T/C [5]: 111%
viability, T/C [6]: 92.1%
viability, T/C [7]: 114%
viability, T/C [8]: 109%
viability, T/C [9]: 103%
viability, T/C [10]: 113%
viability, T/C [11]: 114%
viability, T/C [12]: 103%
viability, T/C [13]: 114%
viability, T/C [14]: 104%
viability, T/C [15]: 118%
viability, T/C [16]: 114%
viability, T/C [17]: 108%
viability, T/C [18]: 98.4%
viability, T/C [19]: 96.7%
viability, T/C [20]: 93.6%
viability, T/C [21]: 94.8%
viability, T/C [22]: 85.2%
viability, T/C [23]: 97.6%
viability, T/C [24]: 84.1%
viability, T/C [25]: 67.5%
viability, T/C [26]: 57.3%
viability, T/C [27]: 66.1%
viability, T/C [28]: 61.7%
viability, T/C [29]: 59.1%
viability, T/C [30]: 52.5%
viability, T/C [31]: 37.2%
viability, T/C [32]: 33.2%
viability, T/C [33]: 39.3%
viability, T/C [34]: 36.3%
viability, T/C [35]: 37.4%
viability, T/C [36]: 30.9%

IC50 (second compound 0.0316 µM): 927 nM
IC50 (second compound 0.1 µM): 831 nM
IC50 (second compound 0.316 µM): 868 nM
IC50 (second compound 1 µM): 572 nM
IC50 (second compound 3.16 µM): 238 nM
IC50 (second compound 10 µM): < 31.6 nM
SMILES: Cn1ncc(Cl)c1-c1cc(C(=O)NC(CN)Cc2cccc(F)c2)sc1Cl (stereo unspecified) + Cc1nc(NC(=O)N2CCCC2C(N)=O)sc1-c1ccnc(C(C)(C)C(F)(F)F)c1
viability, T/C [1]: 109%
viability, T/C [2]: 93.2%
viability, T/C [3]: 70.3%
viability, T/C [4]: 49.7%
viability, T/C [5]: 34.5%
viability, T/C [6]: 33.3%
viability, T/C [7]: 108%
viability, T/C [8]: 89%
viability, T/C [9]: 72.1%
viability, T/C [10]: 44.5%
viability, T/C [11]: 33.6%
viability, T/C [12]: 34.8%
viability, T/C [13]: 102%
viability, T/C [14]: 99.7%
viability, T/C [15]: 72.2%
viability, T/C [16]: 48.5%
viability, T/C [17]: 34.5%
viability, T/C [18]: 33.1%
viability, T/C [19]: 76.5%
viability, T/C [20]: 73.9%
viability, T/C [21]: 56.5%
viability, T/C [22]: 43.9%
viability, T/C [23]: 34.3%
viability, T/C [24]: 33.7%
viability, T/C [25]: 59.5%
viability, T/C [26]: 57.5%
viability, T/C [27]: 46%
viability, T/C [28]: 40.7%
viability, T/C [29]: 30.4%
viability, T/C [30]: 28.4%
viability, T/C [31]: 38.2%
viability, T/C [32]: 32.6%
viability, T/C [33]: 31.9%
viability, T/C [34]: 26.4%
viability, T/C [35]: 27.7%
viability, T/C [36]: 17.4%

IC50 (second compound 0.0316 µM): > 10000 nM
IC50 (second compound 0.1 µM): > 10000 nM
IC50 (second compound 0.316 µM): > 10000 nM
IC50 (second compound 1 µM): > 10000 nM
IC50 (second compound 3.16 µM): 5980 nM
IC50 (second compound 10 µM): < 31.6 nM
SMILES: Cn1nccc1Nc1nccc(-c2ccn(C(CO)c3ccc(Cl)c(F)c3)c(=O)c2)n1 (stereo unspecified) + Cc1nc(NC(=O)N2CCCC2C(N)=O)sc1-c1ccnc(C(C)(C)C(F)(F)F)c1
viability, T/C [1]: 102%
viability, T/C [2]: 90%
viability, T/C [3]: 92.9%
viability, T/C [4]: 102%
viability, T/C [5]: 102%
viability, T/C [6]: 109%
viability, T/C [7]: 95.7%
viability, T/C [8]: 103%
viability, T/C [9]: 99%
viability, T/C [10]: 103%
viability, T/C [11]: 113%
viability, T/C [12]: 106%
viability, T/C [13]: 97.4%
viability, T/C [14]: 102%
viability, T/C [15]: 103%
viability, T/C [16]: 98.8%
viability, T/C [17]: 109%
viability, T/C [18]: 103%
viability, T/C [19]: 88.8%
viability, T/C [20]: 81.3%
viability, T/C [21]: 91.9%
viability, T/C [22]: 90.4%
viability, T/C [23]: 89.4%
viability, T/C [24]: 71.3%
viability, T/C [25]: 57.9%
viability, T/C [26]: 60.4%
viability, T/C [27]: 55.7%
viability, T/C [28]: 56.5%
viability, T/C [29]: 52.9%
viability, T/C [30]: 45.4%
viability, T/C [31]: 35.4%
viability, T/C [32]: 22.1%
viability, T/C [33]: 31.6%
viability, T/C [34]: 26.8%
viability, T/C [35]: 29.2%
viability, T/C [36]: 24.1%
